From US20040018581A1, “Method for discovering substances for inhibiting enzymes” (Pharmacia and UpJohn Company, priority 2002, published 2004)

What was measured:
[1] = test system: Δgpd1-pYES2/m1pdh (Saccharomyces cerevisiae Δgpd1 expressing Eimeria tenella m1pdh); assay: Growth inhibition of yeast transformant Δgpd1-pYES2/m1pdh in liquid YEPD with or without 1.5 M NaCl (OD 600); assay type: cell-based
Method: (§1) Transformants growing on high salt plates were picked and grown in 18×150 mm glass culture tubes containing 10 ml liquid YEPD medium or liquid YEPD medium with 1.5 M NaCl. These tubes were inoculated with approximately 10^5 cells and cultured at 30° C. on a roller bottle. Growth rates were recorded in terms of optical density values at various times after inoculation. Growth rates were also monitored in 96-well plates using the indicator dye Alamar Blue (BioSource International, Camarillo, Calif.) as previously described by Klein et al., (1997b). In 96-well plate experiments, each well contained approximately 10^4 cells (in 20 ul medium) inoculated into 180 ul liquid YEPD medium or liquid YEPD medium containing 1.5 M NaCl. These plates were then incubated at 30° C. for 24 or 48 hours. At that time, 20 ul Alamar Blue solution was added to each well and the color allowed to develop for 5-30 minutes. Color changes in each well were noted after visual inspection and recorded.
(§2) Nitrophenide, a known inhibitor of MIPDH (Schmatz 1997), was used to validate the assay. The Δgpd1transformed with pYES21/m1pdh was grown in liquid YEPD medium, either supplemented with 1.5 M NaCal or not and containing one of 3 concentrations of nitrophenide (Aldrich Chemical Co.) dissolved in DMSO. Experiments were conducted in glass culture tubes prepared and processed as described above. Growth in nitrophenide-containing media was compared to growth in identical medium lacking nitrophenide by measuring and recording changes at OD 600 nm after 24, 48 or 72 hours in culture as described above.
(§3) Test groups of each sample organism were inoculated into liquid cultures of YEPD and YEPD with 1.5 M NaCl. Rate of growth was estimated by recording OD 600 values at 24 hr intervals. All strains grew equally well in YEPD, but growth rates in YEPD with 1.5 M NaCl were distinctly different between transformants expressing mt1D or m1pdh and controls as shown in FIG. 3.
Nitrophenide was dissolved in DMSO and added to cultures at final concentrations of 1 μM, 2.5 μM or 10 μM. DMSO alone was also tested. Little toxicity was apparent for DMSO or for nitrophenide in YEPD except at 10 μM, a concentration at which slowing of the rate of growth of Δgpd1-pYES2/mt1D and Δgpd1-pYES2/MIPDH was observed as shown in FIG. 4. However, in YEPD with 1.5 M NaCl, nitrophenide was toxic to Δgpd1-pYES2/mt1D and Δgpd1-pYES2/MIPDH at concentrations as low as 2.5 uM and abolishes growth at 10 uM as shown in FIG. 4. Nitrophenide was also toxic to W303-1A under these conditions, but this strain grew more slowly than either of the transformants under salt pressure. The difference in rate of growth made comparisons between strains difficult.

[2] = test system: Δgpd1-pYES2/mt1D (Saccharomyces cerevisiae Δgpd1 expressing E. coli mt1D); assay: Growth inhibition of yeast transformant Δgpd1-pYES2/mt1D in liquid YEPD with or without 1.5 M NaCl (OD 600); assay type: cell-based
Method: as §1, §2, §3
Nitrophenide was dissolved in DMSO and added to cultures at final concentrations of 1 μM, 2.5 μM or 10 μM. DMSO alone was also tested. […]

W303-1A = assay: Growth inhibition of wild-type yeast W303-1A in YEPD with 1.5 M NaCl (OD 600); assay type: cell-based, Saccharomyces cerevisiae
Method: as §1
as §2, with “Growth in nitrophenide-containing media was compared to growth in identical medium lacking nitrophenide by measuring and recording changes at OD 600 nm after 24, 48 or 72 hours in culture as described above.” left out

[3] = YEPD with 1.5 M NaCl, tested at 1, 2.5 and 10 μM
[4] = YEPD without added NaCl, little toxicity at lower concentrations

## O=[N+]([O-])c1cccc(SSc2cccc([N+](=O)[O-])c2)c1 [Nitrophenide, nitrophenide]
[1]; YEPD with 1.5 M NaCl
  concentration that abolishes growth: 10 µM
[1]; [3]
  lowest concentration toxic to growth: 2.5 µM
[1]; [4]
  concentration at which slowing of the rate of growth was observed: 10 µM
[1]; medium containing 1.5 M NaCl
  effect on growth (FIG. 4): dramatically suppressed
[1]; medium with no additional NaCl
  toxicity compared with 1.5 M NaCl medium (FIG. 4): reduced
[2]; YEPD with 1.5 M NaCl
  concentration that abolishes growth: 10 µM
[2]; [3]
  lowest concentration toxic to growth: 2.5 µM
[2]; [4]
  concentration at which slowing of the rate of growth was observed: 10 µM
W303-1A
  toxicity to growth: toxic
